According to patent publication US9486447B2, “Compositions and methods for controlling neuronal excitation” (The General Hospital Corporation, priority 2011, dated 2016):
“Also recorded” adds a separate entry of the source.

Columns and labels:
zebrafish embryos = assay: Zebrafish behavioral assay (light-dependent motor excitation, excitation score); assay type: in vivo; details: for light-dependent motor excitation in vivo / behavioral excitation (activity of optovin analogs): 10 μM; for light-dependent motor excitation in vivo: n=3, FIG. 4H; for behavioral excitation (activity of optovin analogs): n=5, FIG. 2A
Experimental: To identify small molecules for the optical control of endogenous channels, a screen was conducted for compounds that could drive light-dependent motor behaviors in wild-type zebrafish. Zebrafish embryos are particularly well suited for phenotype based chemical screens^28,29. They are blind for the first 3 days of development and other than a one-time motor response to the first light exposure in dark-adapted animals (the photomotor response, PMR), zebrafish embryos are unresponsive to light^31,30 (FIG. 1A). A library of 10,000 structurally diverse synthetic small molecules was screened for compounds that render zebrafish embryos responsive to light. Behavioral responses were measured for each well in comparison to a set of 2,500 DMSO treated controls. This screen identified a single compound, optovin, that increased motor activity greater than 40 standard deviations above the control mean (FIGS. 1A-1C).
A large number of fertilized eggs (up to 5,000 embryos per day) were collected from group mating of Ekkwill or TuAB zebrafish. Embryos were raised in HEPES (10 mM) buffered E3 media in a dark incubator at 28° C. until […]. Groups of ˜8 embryos (28 hpf) were distributed into the wells of flat bottom black-walled 96 well plates filled with E3 media (360 μl). Embryos were then incubated in a dark incubator 25° C. for chemical treatment and subsequent experiments.
The Tim Tec ACTIPROBEβ library contains 10,000 compounds dissolved in DMSO at a stock concentration of 1 mg/ml (˜3 mM). The Tim Tec library was screened at a 1:300 dilution in E3 buffer for a final concentration of ˜10 μM. Negative controls were treated with an equal volume of DMSO. Stock solutions were added directly to zebrafish in the wells of a 96 well plate, mixed, and allowed to incubate for 2-10 hours in the dark prior to behavioral evaluation in the PMR assay. The Tim Tec library (10,000 compounds) was purchased from the Tim Tec corporation (Newark, Del.). The Neurotransmitter Library (700 compounds; cat #2810) was purchased from Biomol International. Reordered hit compounds were dissolved in DMSO and added to wells as described above.
Animals were exposed to a two pulse stimulus train with a 10 s inter-stimulus interval. Exposure to the first pulse was used to trigger the photomotor response, which has a refractory phase of approximately 10 minutes. […] In a typical assay, 1000 frames of digital video were recorded at 33 fps using a Hamamatsu ORCA-ER camera mounted on a Nikon TE200 microscope with a 1× objective. Instrument control and data measurement were performed using custom scripts for Metamorph Software (Molecular Devices). Each video was saved for review. Light stimuli were generated with a 300-watt xenon bulb housed in a Sutter Lambda LS illuminator and delivered to the well 10 s and 20 s after the start of each video. A cold mirror (reflectance between 300 nm and 700 nm) on the Sutter illuminator was used to block wavelengths outside of this range. Light intensity was measured using a PM100D power meter attached to a S120VC photodiode power sensor (Thorlabs). Where indicated, filters were used to restrict the excitation light to the indicated wavelengths.
To analyze digital video recordings, custom software scripts were used to automatically draw six evenly spaced line segments across each well such that each embryo is likely to be crossed by one of the lines. The software then tracks the average intensity of the pixels for each segment over time. As the embryos move, the light intensity at some of the pixels changes. The motion index was calculated by taking the total absolute difference in pixel intensity between frames. This motion index correlates with the overall amount of motion in the well, both in terms of contraction frequency and number of animals in motion. Behavioral features are quantified by ‘excitation scores’ that are calculated by taking the 75th percentile of the motion index for 3-5 s following the light stimulus. […]

[1] = system: dorsal root ganglia (DRG) sensory neurons; assay: Calcium imaging of DRG sensory neurons; assay type: cell-based, mouse; details: 100 μM mustard oil
Experimental: To determine if optovin acts on sensory neurons, the activity of treated and untreated dorsal root ganglia (DRG) sensory neurons isolated from wild type mice were compared. […] TRPA1 channels play important roles in detecting chemical, thermal, and mechanical stimuli in a variety of organisms^34,35.
C57Bl/6 male mice (3-4 weeks old) were decapitated and DRG were dissected into 4° C. Hank's Balanced Salt Solution (HBSS; Gibco), then neurons were dissociated using collagenase (1 mg/mL; Worthington) and dispase (5 mg/mL; Gibco) dissolved in HBSS. Neurons were plated in Neurobasal-A medium (Invitrogen), supplemented with B-27 Supplement (Gibco), L-glutamine (Gibco), and penicillin-streptomycin (Gibco). The neurons were plated onto coverslips coated with 0.1 mg/mL poly-D-lysine (Sigma) and 5 μg/mL laminin (Sigma). After 24 h, neurons were washed with assay buffer (HBSS, supplemented with 9 mM HEPES, 11 mM D-glucose, 0.1% fatty-acid free BSA, pH 7.3) and incubated for 1 h with 2 μM Fura2-AM (Invitrogen) with 0.2% pluronic (Invitrogen) in assay buffer in the dark at room temperature. The neurons were then washed with assay buffer and allowed to equilibrate at room temperature for 30 min prior to imaging. After a 120 s baseline perfusion of assay buffer containing 3.3% DMSO, 100 μM optovin dissolved in the DMSO-assay buffer solution, or the DMSO-assay buffer solution alone as a control, was perfused onto the neurons for a period of 1 min. Fura-2 is activated with UV-light, and the process of imaging Fura-2 was enough to activate the optovin. […] Following this one-minute period, cells were perfused with DMSO-assay buffer to remove the agonist, which was followed by addition of 100 μM mustard oil (in DMSO-assay buffer) to determine the total number of TrpA1-expressing neurons present. Images were acquired on a Nikon Eclipse Ti microscope (Nikon, Melville, N.Y.).

Structure (SMILES): COc1ccc(/C=C2/SC(=S)NC2=O)cc1O [7c7]
- light-dependent motor excitation in vivo (zebrafish embryos): cause light-dependent motor excitation

Structure (SMILES): COc1cc(C(C)=C2SC(=S)NC2=O)ccc1O [7d1]
- light-dependent motor excitation in vivo (zebrafish embryos): does not cause light dependent motor activity

Structure (SMILES): Cc1cc(C=C2SC(=O)NC2=O)c(C)n1-c1cccnc1 [6c2]
- behavioral excitation (activity of optovin analogs) (zebrafish embryos): abrogate the optovin response; also recorded: inactive

Structure (SMILES): Cc1cc(/C=C2/NC(=O)NC2=O)c(C)n1-c1cccnc1 [6c4]
- behavioral excitation (activity of optovin analogs) (zebrafish embryos): retains optovin activity

Structure (SMILES): Cc1cc(/C=C2/SC(=S)NC2=O)c(C)n1-c1ccccc1 [6b8]
- behavioral excitation (activity of optovin analogs) (zebrafish embryos): bioactive; also recorded: active

Structure (SMILES): CN(C)c1ccc(C=C2SC(=S)NC2=O)cc1 [6c7]
- behavioral excitation (activity of optovin analogs) (zebrafish embryos): Neither analog retains activity; also recorded: inactive

Structure (SMILES): C=CCN=C=S [mustard oil, reference compound]
- response of optovin responsive DRG neurons to mustard oil [1]: responded to mustard oil

Structure (SMILES): O=C1CSC(=S)N1 [6c5]
- behavioral excitation (activity of optovin analogs) (zebrafish embryos): Neither analog retains activity; also recorded: inactive

Structure (SMILES): CCN1C(=O)C(=Cc2cc(C)n(-c3cccnc3)c2C)SC1=S [6c3]
- behavioral excitation (activity of optovin analogs) (zebrafish embryos): abrogate the optovin response; also recorded: inactive

Structure (SMILES): Cc1cc(/C=C2/SC(=S)NC2=O)c(C)n1C [6c1]
- behavioral excitation (activity of optovin analogs) (zebrafish embryos): bioactive; also recorded: active
- lowest effective dose (zebrafish embryos; zebrafish, in vivo): 300 nM
- lowest effective dose, fold lower than optovin (zebrafish embryos; zebrafish, in vivo): 10 ×

Structure (SMILES): C1CN2CCN1CC2 [DABCO, 1,4-diazabicyclo[2.2.2]octane, reference compound]
- effect on other light elicited behaviors (PMR) (zebrafish embryos; co-treatment with optovin): not affect other light elicited behaviors
- suppression of the optovin response in vivo (zebrafish embryos; co-treatment with optovin): completely suppress the optovin response
